Experimental data: ChEMBL document CHEMBL1201862, “PubChem BioAssay data set” (2004)
Where a name gives a salt, the structure may show the parent alone.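 Where inhibition never reached the appropriate level, the endpoint shown equals the highest concentration tested. Otherwise, values were interpolated linearly from a five-concentration, 48-hour dose response in 96-well plates. At the GI50, growth is halved.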 Calls of active or inactive are those of the source. Cut-off read from the data, not from the text of the source: active = GI50 up to about 1.1 µM and inactive = higher.

What was measured:
Experiment in all cases: DTP human tumour cell line panel, 48 h
NCI/ADR-RES = test system: NCI/ADR-RES
K562 = test system: K562
NCI-H23 = test system: NCI-H23
UACC-257 = test system: UACC-257
CAKI-1 = test system: CAKI-1
A549 = test system: A549
KM12 = test system: KM12
HCT-116 = test system: HCT-116
HOP-92 = test system: HOP-92
OVCAR-4 = test system: OVCAR-4
LOX IMVI = test system: LOX IMVI
EKVX = test system: EKVX
A498 = test system: A498
SN12C = test system: SN12C
SW-620 = test system: SW-620
COLO 205 = test system: COLO 205
NCI-H460 = test system: NCI-H460
OVCAR-5 = test system: OVCAR-5
Malme-3M = test system: Malme-3M

Row | SMILES | GI50 (NCI/ADR-RES) | GI50 (K562) | GI50 (NCI-H23) | GI50 (UACC-257) | GI50 (CAKI-1) | GI50 (A549) | GI50 (KM12) | GI50 (HCT-116) | GI50 (HOP-92) | GI50 (OVCAR-4) | GI50 (LOX IMVI) | GI50 (EKVX) | GI50 (A498) | GI50 (SN12C) | GI50 (SW-620) | GI50 (COLO 205) | GI50 (NCI-H460) | GI50 (OVCAR-5) | GI50 (Malme-3M)
1 | COc1cccc(CC(=O)N2CCN(CCCc3ccccc3)CC2)c1 | 27.9 µM (inactive) | 33.9 µM (inactive) | 36.1 µM (inactive) | 37.3 µM (inactive) | 80.4 µM (inactive) | 66.5 µM (inactive) | > 100 µM (inactive) | 65.6 µM (inactive) | 25.2 µM (inactive) | 34.4 µM (inactive) | > 100 µM (inactive) | 59.6 µM (inactive) | > 100 µM (inactive) | > 100 µM (inactive) | > 100 µM (inactive) | 76.7 µM (inactive) | > 100 µM (inactive) | > 100 µM (inactive) | 
2 | O=C1OC(c2ccccc2)=N/C1=C\c1cccc(F)c1 | 27.7 µM (inactive) | > 100 µM (inactive) | > 100 µM (inactive) | 32.7 µM (inactive) | > 100 µM (inactive) | > 100 µM (inactive) | 33.5 µM (inactive) | > 100 µM (inactive) | > 100 µM (inactive) | 31.3 µM (inactive) | 22.2 µM (inactive) | > 100 µM (inactive) | > 100 µM (inactive) | > 100 µM (inactive) | > 100 µM (inactive) | > 100 µM (inactive) | 60.5 µM (inactive) | > 100 µM (inactive) | 
3 | COc1cccc(C2c3cc4c(cc3OC(N3CCCC3)C2c2ccccc2)OCO4)c1O (centres undefined) | 9.91 µM (inactive) | 5.35 µM (inactive) | 14 µM (inactive) | 11.4 µM (inactive) | 2.88 µM (inactive) | 11.6 µM (inactive) | 2.76 µM (inactive) | 4.21 µM (inactive) |  |  | 12.4 µM (inactive) | 16.6 µM (inactive) |  | 12.7 µM (inactive) | 7.78 µM (inactive) | 7.24 µM (inactive) | 8.22 µM (inactive) | 25.2 µM (inactive) | 
4 | Cc1ccc(S(=O)(=O)N2CCN(CCO)CCN(S(=O)(=O)c3ccc(C)cc3)CCN(CCO)CC2)cc1 | 18.5 µM (inactive) | 17.1 µM (inactive) | 18.2 µM (inactive) | 10.3 µM (inactive) | 37.8 µM (inactive) | 20.7 µM (inactive) | 20.6 µM (inactive) | 15 µM (inactive) | 21.5 µM (inactive) | 15 µM (inactive) | 13.6 µM (inactive) | 18.2 µM (inactive) | 24.7 µM (inactive) | 45 µM (inactive) | 33.7 µM (inactive) | 15.3 µM (inactive) | 14.3 µM (inactive) | 44.1 µM (inactive) | 
5 | Cc1cc(NS(=O)(=O)c2ccc(Nc3c4ccccc4nc4ccc(C(=O)Nc5ccc(S(=O)(=O)N=C(N)N)cc5)cc34)cc2)no1 | > 100 µM (inactive) | > 100 µM (inactive) | > 100 µM (inactive) | > 100 µM (inactive) | > 100 µM (inactive) | > 100 µM (inactive) | > 100 µM (inactive) | > 100 µM (inactive) | > 100 µM (inactive) | > 100 µM (inactive) | > 100 µM (inactive) | > 100 µM (inactive) |  | > 100 µM (inactive) | > 100 µM (inactive) | > 100 µM (inactive) | > 100 µM (inactive) | > 100 µM (inactive) | > 100 µM (inactive)
6 | CC(=O)OCC1OC(NC(=S)CCSc2nc3ccccc3c(=O)n2-c2ccccc2)C(OC(C)=O)C(OC(C)=O)C1OC(C)=O (centres undefined) | > 100 µM (inactive) | 34.2 µM (inactive) | 68.1 µM (inactive) | 30.4 µM (inactive) | > 100 µM (inactive) | > 100 µM (inactive) | 36.5 µM (inactive) | 73.5 µM (inactive) | 16.9 µM (inactive) |  | 79.6 µM (inactive) | 57.8 µM (inactive) |  | 68.2 µM (inactive) | 41.2 µM (inactive) | 40.1 µM (inactive) | > 100 µM (inactive) | 22.6 µM (inactive) | > 100 µM (inactive)
7 | O=c1c2c3ccccc3[nH]c2c2cccc3c2n1CCC3 | 50 µM (inactive) | 32.3 µM (inactive) | 45.8 µM (inactive) | 83 µM (inactive) |  | 48.1 µM (inactive) | 33.9 µM (inactive) | 36.6 µM (inactive) | 40.2 µM (inactive) |  |  | 20.6 µM (inactive) | 20.7 µM (inactive) | 53.1 µM (inactive) | 43.3 µM (inactive) | 54 µM (inactive) | 34.8 µM (inactive) | 66.7 µM (inactive) | 22 µM (inactive)
8 | N#CCC(=O)N/N=C\C(O)C(O)C(O)C(O)CO (centres undefined) | > 100 µM (inactive) | > 100 µM (inactive) | > 100 µM (inactive) | > 100 µM (inactive) | > 100 µM (inactive) | > 100 µM (inactive) | > 100 µM (inactive) |  |  |  | > 100 µM (inactive) |  | > 100 µM (inactive) | > 100 µM (inactive) | > 100 µM (inactive) |  | > 100 µM (inactive) | > 100 µM (inactive) | > 100 µM (inactive)
9 | Cn1c(=O)oc2cc(C(=O)CN3CCN(Cc4ccc5c(c4)OCO5)CC3)c(Cl)cc21 | > 100 µM (inactive) | > 100 µM (inactive) | > 100 µM (inactive) |  | > 100 µM (inactive) |  |  | > 100 µM (inactive) |  |  | 80.4 µM (inactive) |  |  | > 100 µM (inactive) |  | > 100 µM (inactive) | > 100 µM (inactive) | > 100 µM (inactive) | > 100 µM (inactive)
10 | COC1(OC)c2occc2C(=N)c2ccc(=O)oc21 |  | > 100 µM (inactive) | > 100 µM (inactive) | > 100 µM (inactive) | > 100 µM (inactive) | > 100 µM (inactive) |  | > 100 µM (inactive) | > 100 µM (inactive) | > 100 µM (inactive) | > 100 µM (inactive) | > 100 µM (inactive) | > 100 µM (inactive) | > 100 µM (inactive) | > 100 µM (inactive) | > 100 µM (inactive) | > 100 µM (inactive) | > 100 µM (inactive) | 18.2 µM (inactive)
11 | CC[C@]12CN3CCc4c([nH]c5ccccc45)[C@@](C(=O)OC)(c4cc5c(cc4OC)N(C)[C@H]4[C@@](O)(C(=O)OC)[C@H](OC(C)=O)[C@]6(CC)C=CCN7CC[C@]54[C@@H]76)CC(C3)[C@H]1O2 (some centres undefined) [VINLEUROSINE SULFATE] | 16.1 µM (inactive) | < 0.01 µM (active) | 0.126 µM (active) | 3.24 µM (inactive) | 2.16 µM (inactive) | 0.394 µM (active) | < 0.0276 µM (active) | < 0.01 µM (active) | 8.13 µM (inactive) | < 0.01 µM (active) | < 0.01 µM (active) | 10.8 µM (inactive) | 0.863 µM (active) | < 0.01 µM (active) | < 0.0208 µM (active) | < 0.01 µM (active) | < 0.01 µM (active) | 0.804 µM (active) | 
12 | COc1ccc2c(c1OC)OC[C@@H](C1=CC(=O)C=C(O)C1=O)C2 | 24.5 µM (inactive) | 2.2 µM (inactive) | 16.5 µM (inactive) | 13 µM (inactive) |  | 18.2 µM (inactive) | 13 µM (inactive) | 4.7 µM (inactive) | 1.89 µM (inactive) | 5.53 µM (inactive) | 3.32 µM (inactive) | 12.5 µM (inactive) | 15.3 µM (inactive) | 16.2 µM (inactive) | 8.2 µM (inactive) | 21.3 µM (inactive) | 11.8 µM (inactive) | 18 µM (inactive) | 12 µM (inactive)
13 | O=C(/C=C/c1ccc(O)c([N+](=O)[O-])c1)CC(=O)/C=C/c1ccc(O)c([N+](=O)[O-])c1 | 35.3 µM (inactive) |  | 34.8 µM (inactive) | > 100 µM (inactive) |  | 53.7 µM (inactive) | 30.5 µM (inactive) | 41.6 µM (inactive) |  | 79.3 µM (inactive) | 14.4 µM (inactive) | 50.9 µM (inactive) |  | > 100 µM (inactive) | 37.1 µM (inactive) | 47.4 µM (inactive) | 30.5 µM (inactive) | 44.9 µM (inactive) | 
14 | CCN1C(=O)CS/C1=N\NC(=O)CSc1nc2ccccc2c(=O)n1CC | > 100 µM (inactive) | > 100 µM (inactive) | > 100 µM (inactive) | > 100 µM (inactive) | > 100 µM (inactive) | > 100 µM (inactive) | > 100 µM (inactive) | > 100 µM (inactive) |  | > 100 µM (inactive) | > 100 µM (inactive) | > 100 µM (inactive) | > 100 µM (inactive) | > 100 µM (inactive) | > 100 µM (inactive) | > 100 µM (inactive) | 10.3 µM (inactive) | > 100 µM (inactive) | > 100 µM (inactive)
15 | CN(C)c1ccc(/N=N\c2cccc3ncccc23)cc1 | 49 µM (inactive) | 35.4 µM (inactive) | > 100 µM (inactive) | > 100 µM (inactive) | > 93.8 µM (inactive) | 63.7 µM (inactive) | 33.6 µM (inactive) | 52.7 µM (inactive) | 36.9 µM (inactive) | > 100 µM (inactive) | 53.2 µM (inactive) | 11.7 µM (inactive) |  | 99.8 µM (inactive) | 62.2 µM (inactive) | 64 µM (inactive) | 26.6 µM (inactive) |  | > 90.8 µM (inactive)
16 | CC1=CSC(O)(c2ccc(Cl)cc2)c2noc(=O)n21 (centres undefined) | 53.7 µM (inactive) | 61.1 µM (inactive) | 48.4 µM (inactive) | 24.4 µM (inactive) | > 100 µM (inactive) | > 100 µM (inactive) | > 100 µM (inactive) | 53.5 µM (inactive) | 94.8 µM (inactive) | > 100 µM (inactive) |  | > 100 µM (inactive) | > 100 µM (inactive) | > 100 µM (inactive) | > 100 µM (inactive) | > 100 µM (inactive) | 51.2 µM (inactive) | > 100 µM (inactive) | 
